Experimental data from the supplement of paper PMC10307832.

What was measured:
Assay in all cases: relative viability (nuclei count vs DMSO), 5 days (fraction); higher = more cells survive
[1] = compound: C[C@]12O[C@H](C[C@]1(O)CO)n1c3ccccc3c3c4c(c5c6ccccc6n2c5c31)CNC4=O [Lestaurtinib] + CS(=O)(=O)CCNCc1ccc(-c2ccc3ncnc(Nc4ccc(OCc5cccc(F)c5)c(Cl)c4)c3c2)o1 [Lapatinib] (partner 2 µM)
How it was run: (§1)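 Lung cancer cell lines were pin-tool dosed in 1536-well plates on the day after seeding, with either a lone drug or a fixed anchor-drug dose plus five library-drug doses (not always all listed) in √10 steps. Nuclei were counted on 4× images after 5 days. Relative viability is the ratio of treated-well to vehicle-well nuclei counts, with each value a median of duplicate plates.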

[2] = compound: C[C@]12O[C@H](C[C@]1(O)CO)n1c3ccccc3c3c4c(c5c6ccccc6n2c5c31)CNC4=O [Lestaurtinib] + Cc1cc(Nc2cc(N3CCN(C)CC3)nc(Sc3ccc(NC(=O)C4CC4)cc3)n2)n[nH]1 [Tozasertib] (partner 0.1 µM)
How it was run: as §1

[3] = compound: C1=CC(=CC=C1C2=CC(=C(S2)NC(=O)N)C(=O)N)F [TPCA-1] + Nc1nc2[nH]cc(CCc3ccc(C(=O)N[C@@H](CCC(=O)O)C(=O)O)cc3)c2c(=O)[nH]1 [Pemetrexed] (partner 0.2 µM)
How it was run: as §1

[4] = compound: C[C@]12O[C@H](C[C@]1(O)CO)n1c3ccccc3c3c4c(c5c6ccccc6n2c5c31)CNC4=O [Lestaurtinib] + CC(C)C[C@H](NC(=O)[C@H](Cc1ccccc1)NC(=O)c1cnccn1)B(O)O [Bortezomib] (partner 0.002 µM)
How it was run: as §1

| Cell Line | relative viability ([1]; first compound 0.005 µM) | relative viability ([1]; first compound 0.01581 µM) | relative viability ([1]; first compound 0.05 µM) | relative viability ([1]; first compound 0.1581 µM) | relative viability ([1]; first compound 0.5 µM) | relative viability ([2]; first compound 0.005 µM) | relative viability ([2]; first compound 0.01581 µM) | relative viability ([2]; first compound 0.05 µM) | relative viability ([2]; first compound 0.1581 µM) | relative viability ([2]; first compound 0.5 µM) | relative viability ([3]; first compound 0.04 µM) | relative viability ([3]; first compound 0.1265 µM) | relative viability ([3]; first compound 0.4 µM) | relative viability ([3]; first compound 1.265 µM) | relative viability ([3]; first compound 4 µM) | relative viability ([4]; first compound 0.005 µM) | relative viability ([4]; first compound 0.01581 µM) | relative viability ([4]; first compound 0.05 µM) | relative viability ([4]; first compound 0.1581 µM) | relative viability ([4]; first compound 0.5 µM) |
| --- | --- | --- | --- | --- | --- | --- | --- | --- | --- | --- | --- | --- | --- | --- | --- | --- | --- | --- | --- | --- |
| EMC-BAC-2 | 0.921 | 0.968 | 0.865 | 0.669 | 0.309 | 0.279 | 0.206 | 0.283 | 0.22 | 0.183 | 0.422 | 0.472 | 0.466 | 0.436 | 0.484 | 1.1 | 1.11 | 0.942 | 0.678 | 0.279 |
| NCI-H520 | 0.833 | 1 | 0.59 | 0.48 | 0.252 | 0.458 | 0.468 | 0.428 | 0.388 | 0.254 | 0.779 | 0.727 | 0.737 | 0.578 | 0.608 | 0.712 | 0.724 | 0.282 | 0.321 | 0.224 |
| NCI-H1755 | 1.01 | 1.1 | 0.907 | 0.39 | 0.232 | 0.607 | 0.693 | 0.589 | 0.461 | 0.372 | 0.448 | 0.437 | 0.459 | 0.379 | 0.444 | 1.01 | 0.95 | 0.938 | 0.455 | 0.371 |
| NCI-H1993 | 0.805 | 0.848 | 0.678 | 0.595 | 0.602 | 0.636 | 0.545 | 0.57 | 0.54 | 0.529 | 0.613 | 0.547 | 0.564 | 0.628 | 0.503 | 1.11 | 1 | 1.45 | 0.788 | 0.594 |
| NCI-H23 | 1.21 | 1.19 | 0.776 | 0.888 | 0.212 | 0.492 | 0.343 | 0.3 | 0.439 | 0.237 | 0.614 | 0.668 | 0.72 | 0.61 | 0.235 | 0.904 | 1.04 | 0.642 | 1.1 | 0.255 |
| NCI-H1437 | 0.775 | 0.866 | 0.529 | 0.414 | 0.114 | 0.451 | 0.438 | 0.373 | 0.309 | 0.408 | 0.318 | 0.326 | 0.318 | 0.302 | 0.298 | 0.67 | 0.479 | 0.431 | 0.521 | 0.429 |
| NCI-H2405 | 1.06 | 1.14 | 1.02 | 0.927 | 0.428 | 0.797 | 0.814 | 0.78 | 0.511 | 0.271 | 1.09 | 1.03 | 1.02 | 1.02 | 0.914 | 1 | 1.01 | 0.883 | 0.977 | 0.734 |
| NCI-H2023 | 0.987 | 0.753 | 0.503 | 0.22 | 0.0798 | 0.386 | 0.554 | 0.357 | 0.269 | 0.0989 | 0.2 | 0.282 | 0.254 | 0.222 | 0.202 | 1.03 | 1.11 | 0.731 | 0.65 | 0.108 |
| NCI-H838 | 1.04 | 0.998 | 0.664 | 0.451 | 0.132 | 0.275 | 0.238 | 0.275 | 0.2 | 0.171 | 0.25 | 0.225 | 0.259 | 0.264 | 0.294 | 0.79 | 0.783 | 0.615 | 0.472 | 0.148 |
| NCI-H661 | 0.466 | 0.608 | 0.444 | 0.444 | 0.323 | 0.359 | 0.361 | 0.395 | 0.423 | 0.417 | 0.931 | 0.906 | 0.931 | 0.851 | 0.97 | 0.736 | 0.813 | 0.831 | 0.685 | 0.436 |
| NCI-H1734 | 1.09 | 1.22 | 0.808 | 0.895 | 0.199 | 0.289 | 0.153 | 0.247 | 0.214 | 0.178 | 0.41 | 0.413 | 0.41 | 0.48 | 0.362 | 1.08 | 0.904 | 0.681 | 0.456 | 0.325 |
| NCI-H1650 | 0.987 | 0.95 | 0.817 | 0.512 | 0.157 | 0.469 | 0.526 | 0.343 | 0.371 | 0.313 | 0.382 | 0.369 | 0.424 | 0.358 | 0.365 | 0.183 | 0.236 | 0.197 | 0.199 | 0.193 |
| NCI-H596 | 1.22 | 1.03 | 0.973 | 1.26 | 0.843 | 0.885 | 1.16 | 0.746 | 1.06 | 0.955 | 0.53 | 0.516 | 0.532 | 0.509 | 0.412 | 1.16 | 1.28 | 0.969 | 1.29 | 1.06 |
| HCC-15 | 0.931 | 1.05 | 0.8 | 0.545 | 0.135 | 0.598 | 0.599 | 0.232 | 0.235 | 0.107 | 0.222 | 0.227 | 0.224 | 0.238 | 0.22 | 1.04 | 1.28 | 0.868 | 0.868 | 0.194 |
| HOP-62 | 0.889 | 1.17 | 1.02 | 1.08 | 0.93 | 0.35 | 0.43 | 0.396 | 0.356 | 0.234 | 0.269 | 0.346 | 0.299 | 0.271 | 0.216 | 0.863 | 0.707 | 0.913 | 1.42 | 0.696 |
| NCI-H3122 | 1.07 | 1.05 | 1.02 | 0.98 | 0.414 | 0.56 | 0.553 | 0.421 | 0.366 | 0.176 | 0.203 | 0.23 | 0.222 | 0.191 | 0.19 | 1.06 | 1.05 | 1.06 | 1.05 | 0.502 |
